PMC7893776, “Selecting an anti-malarial clinical candidate from two potent dihydroisoquinolones” (Malaria Journal, 2021)
Where two headings read alike, the source gives them in different places. Marks after values point to notes of the source that are not given here.

How the values were obtained:
[1] = Parallel artificial membrane permeability assay (PAMPA); assay type: in vitro ADME
Method: The assay was conducted using a Biomek FX lab automation workstation (Beckman Coulter, Inc., Fullerton, CA) with PAMPA evolution 96 command software (pION Inc., Woburn, MA). Test compound stock (10 mM in DMSO, 3 µL) was mixed with citrate phosphate buffered saline (597 µL) to make diluted test compound. Diluted test compound (150 µL) was transferred to a UV plate (pION Inc., Woburn, MA) and the UV spectrum (250–500 nm) was read as the reference plate. Each well of the donor plate in a PAMPA sandwich plate (pION Inc., Woburn, MA) contained a filter that was painted on one side with 4 µL GIT lipid (pION Inc., Woburn, MA) to form a membrane. Each well in the acceptor plate in a PAMPA sandwich, preloaded with magnetic stir bars, was filled with acceptor solution buffer (200 µL, pION Inc., Woburn, MA). The donor plate was filled with diluted test compound (180 µL). The combined PAMPA plate was placed on a pIon Gut-box™ and stirred for 30 min. The UV spectrum (250–500 nm) of the donor and the acceptor were read. The permeability coefficient and recovery were calculated using PAMPA evolution 96 command software (pION Inc., Woburn, MA) based on the whole spectrum measured from the reference plate, the donor plate, and the acceptor plate. All compounds were tested in triplicate.

mouse plasma proteins = assay: Plasma protein binding (RED), mouse; assay type: in vitro ADME; conditions: average of 20, 4, 0.8 µM
Method: A Rapid Equilibrium Dialysis (RED) Plate (Thermo Scientific, catalog #, PI-90007) was used to determine the percentage of compound binding to plasma proteins. The positive control for this experiment was propranolol-HCl (10 mM in DMSO) and the internal standard was warfarin (2 µM in methanol). 10 mM stocks of compound in DMSO were diluted with DMSO acetonitrile (1:4, v:v) to three different intermediate concentrations: high (2 mM), medium (0.4 mM) and low (0.08 mM). A 10 mM stock of propranolol in DMSO was diluted to 0.4 mM concentration in DMSO:acetonitrile (1:4 v:v). In 16 Eppendorf tubes, the control (10 µL) or each of three compound dilutions (10 µL) were each added to separate aliquots of mouse, rat, dog, and human plasma (990 µL). In the RED plate, potassium phosphate buffer (500 µL, 0.1 M, pH 7.4, 37 °C) was placed in every white well and each plasma/compound mixture was added to each of 3 red wells. […] The compounds and internal standard were detected by selected ion recording (SIR). Using the peak area ratio of compound to warfarin from the SIR spectra, the percentage of free compound [1] and bound compound [2] were calculated using the following equations: (1) % free = (concentration buffer chamber/concentration plasma chamber)*100, and (2) % bound = 100 − % free.

[2] = pKa by potentiometric titration; assay type: physicochemical
Method: Octanol/pH 7.4 buffer partitioning experiments were conducted using a shake flask method, and pKa was assessed by potentiometric titration. Both methods have been described previously.

[3] = set-up: method as in PMID 31898492; conditions: human whole blood; cited from earlier work
[4] = Storage stability of samples at −80 °C; conditions: stored at − 80 °C for more than 14 days, ± 15% variance
Text: All plasma samples that were shipped elsewhere from the testing facility were all analyzed within the validated stability time period.

[5] = test system: recombinant human CYP1A1, 1A2, 1B1, 2B6, 2C8, 2C9, 2C19, 2D6, 3A4; assay: Recombinant human cytochrome P450 (rhCYP) metabolism; assay type: in vitro ADME
Method: SJ733 was first pre-incubated with Bactosomes™ (Cypex Ltd, final P450 concentration: CYP1A1 25 pmol/mL, CYP1A2 100 pmol/mL,CYP1B1 100 pmol/mL, CYP2B6 100 pmol/mL, CYP2C8 50 pmol/mL, CYP2C9, 25 pmol/mL, CYP2C19 100 pmol/mL, CYP2D6 50 pmol/mL and CYP3A4 25 pmol/mL, 0.1 M phosphate buffer pH 7.4) at 37 °C prior to the addition of NADPH (final concentration 1 mM) to initiate the reaction with a final incubation volume of 50 μL. Incubations were also performed using control Bactosomes™ (no P450 enzymes present) to reveal any non-enzymatic degradation. Control compounds known to be metabolized specifically by each P450 isoform were included individually. Test articles and controls were incubated with each isoform for 0, 5, 15, 30, and 45 min. The reactions were stopped by transferring 20 μL of the reaction mixture to 60 μL methanol at the appropriate timepoints.

[6] = set-up: method as in PMID 31898492; conditions: octanol/pH 7.4 buffer, averaged from high and low concentration partition samples; cited from earlier work
[7] = set-up: method as in earlier work; conditions: 6 h, cited from earlier work

storage stability [4]	Compound	Permeability, PAMPA ([1]; pH 3)	Permeability, PAMPA ([1]; pH 5)	Permeability, PAMPA ([1]; pH 7.4)	% bound (mouse plasma proteins)	further results
	N#Cc1cc(NC(=O)C2c3ccccc3C(=O)N(CC(F)(F)F)C2c2cn[nH]c2)ccc1F (racemic) [(r)-SJ311]	17 ± 2.3 10^–6 cm/s	15 ± 6.7 10^–6 cm/s	9.4 ± 7.0 10^–6 cm/s	93.7 ± 0.7%	pKa [2]: 11.1 ± 0.3
	N#Cc1cc(NC(=O)C2c3ccccc3C(=O)N(CC(F)(F)F)C2c2cccnc2)ccc1F (racemic) [(r)-SJ733]	66 ± 3.5 10^–6 cm/s	380 ± 7.2 10^–6 cm/s	350 ± 130 10^–6 cm/s	95.7 ± 0.6%	B/P ratio [3]: 0.72 ± 0.02^b
stable	N#Cc1cc(NC(=O)[C@H]2c3ccccc3C(=O)N(CC(F)(F)F)[C@@H]2c2cccnc2)ccc1F (racemic) [SJ733]					formation of metabolites ([5]; incubation with CYP1A1, 1A2, 1B1, 2B6, 2C9, or 2C19 recombinant enzymes): no detectable formation of metabolites; formation of metabolites ([5]; incubations with CYP2C8, 2D6, and 3A4 recombinant enzymes): Metabolite formation was only observed
	N#Cc1cc(NC(=O)[C@H]2c3ccccc3C(=O)N(CC(F)(F)F)[C@@H]2c2cccnc2)ccc1F [(+)-SJ733]					LogD (7.4) Shake flask [6]: 3.90 ± 0.01^a,b; Solubility ([7]; FaSSIF-V2 pH 6.5, 37°C): 216^b µM; Solubility ([7]; FeSSIF-V2 pH 5.8, 37°C): 254^b µM; Solubility ([7]; Phosphate buffer pH 7.4, 37°C): 246^b µM
stable	N#Cc1cc(NC(=O)[C@H]2c3ccccc3C(=O)N(CC(F)(F)F)[C@@H]2c2cn[nH]c2)ccc1F [SJ311]					
